One assay addresses vaccinia capping enzyme (Vaccinia virus, UniProt P04298). Format: biochemical.
In assay [1] the target is vaccinia capping enzyme (guanine 7-methyltransferase activity) (Vaccinia virus, UniProt P04298). It counts as biochemical.
Another assay has as its system HeLa cells. Format: cell-based. The settings on record: GTP-capped poly(A)-tailed Renilla luciferase RNA.
The test system of a further assay is BDCM cells. It counts as cell-based. The settings on record: GTP-capped poly(A)-tailed Renilla luciferase RNA.
The target of assay [2] is vaccinia mRNA (nucleoside-2′-O—) methyltransferase (Vaccinia virus, UniProt P07617). Format: biochemical.
The subject of assay [3] is tobacco acid pyrophosphatase (TAP). It counts as biochemical. The settings on record: capped RNA prepared per Method 6.
The test system of assay [4] is rabbit reticulocyte lysate. Format: biochemical. Particulars: rabbit reticulocyte lysate.
The test system of another assay is wheat germ lysate. It counts as biochemical. Particulars: wheat germ lysate, poly(A)-tailed Renilla luciferase RNA.
The target of assay [5] is RNA guanyltransferase activity of the vaccinia capping enzyme system (Vaccinia virus, UniProt P04298). Particulars: permeabilized vaccinia virions; cited from earlier work.

Where two headings read alike, the source gives them in different places.

For the compound `Nc1nc2c(ncn2[C@@H]2O[C@H](COP(=O)(O)OP(=O)(O)OP(=O)(O)O)[C@@H](O)[C@H]2O)c(=O)[nH]1` [GTP, reference compound], the “conversion of 51-base primary RNA transcript to 52-base capped RNA (in words)” value at vaccinia capping enzyme is “quantitatively converted”. For the same compound, in assay [1], the “conversion of 51-base primary RNA transcript into 52-base capped RNA (in words)” value is “quantitatively converted” and the “methylation of the N^7 position of the cap nucleotide (radioactive methyl group in 52-base band)” value is recorded as “contained the radioactive methyl group”. Further, the “RLUs with cap I structure relative to cap 0 structure” value in the assay with HeLa cells is listed as “about 2.2 times higher”. Further, the “RLUs with cap I structure relative to cap 0 structure” value in the assay on BDCM cells is “about 1.3 times higher”.

Turning to `Nc1nc2c(ncn2[C@H]2C[C@H](O)[C@@H](COP(=O)(O)OP(=O)(O)OP(=O)(O)O)O2)c(=O)[nH]1` [2′-dGTP, 2′-deoxyguanosine-5′-triphosphate], the “conversion of 51-base primary RNA transcript to 52-base capped RNA (in words)” value on vaccinia capping enzyme is listed as “quantitatively converted”. Also, in assay [2], the “methylation of the 2′-hydroxyl of the 5′-penultimate nucleotide by mRNA (nucleoside-2′-O—) methyltransferase” value is listed as 52-base radioactive band was observed. Further, the “removal of the cap nucleotide by tobacco acid pyrophosphatase (51-base band on PAGE)” value in [3] is given as 51-base band was observed. The “average relative translation efficiency” value in [4] (poly(A)-tailed Renilla luciferase RNA, cap 0 structure, GTP-capped cap 0 RNA = 100%) was determined as 118%; in assay [4] (poly(A)-tailed Renilla luciferase RNA, cap I structure), 84%; in assay [4] (poly(A)-tailed firefly luciferase RNA, cap I structure), 128%. For the same compound, the relative translation efficiency came to 54% in the assay on wheat germ lysate (cap 0 structure, GTP-capped cap 0 RNA = 100%) and 54% in the assay with wheat germ lysate (cap I structure). Also, in assay [5], the “activity relative to GTP in [^32P]-PPi exchange assay” value is on record as “approximately 6%”.

The values are drawn from patent US9115380B2, “Kits and methods for generating 5′ capped RNA” (priority 2006, dated 2015).
